According to patent EP4741386A1 (Jiangsu Yahong Meditech Co., Ltd., priority 2023, dated 2025):
pIC50: −log10 of the molar value.

Tests used:
[1] = target: T1, Recombinant human His6-USP1/His6-UAF1 complex protein (Homo sapiens, UniProt O94782); assay: In vitro inhibitory activity against USP1 (Ubiquitin Rhodamine 110 fluorescence detection, 384-well plate); type: biochemical; conditions: Ub-Rho substrate, 1 hour pre-incubation, read after 30 minutes
T1 construct: His6; purchased R&D E-568-050
How it was run: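 Compounds, kept as 50 mM DMSO stocks, were acoustically dispensed into modified Tris buffer. Inhibition of recombinant human His6-USP1/His6-UAF1 was read by fluorescence from cleavage of Ub-Rho110 substrate.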

MDA-MB-436 = assay: CTG experiment for cell viability (CellTiter-Glo, 96-well plate, 7 days); type: cell-based; conditions: Homo sapiens, MDA-MB-436, 168 h, MDA-MB-436 cells, 7 days culture with compound
How it was run: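 Viability was read by CellTiter-Glo luminescence after 10 min at room temperature, once the compound-containing medium had been replaced with PBS. Before that, MDA-MB-436 cells grown in DMEM were exposed to compounds for 7 days at 37°C. Curve fitting followed the enzyme assay method.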

T1 sequence (O94782 whole entry): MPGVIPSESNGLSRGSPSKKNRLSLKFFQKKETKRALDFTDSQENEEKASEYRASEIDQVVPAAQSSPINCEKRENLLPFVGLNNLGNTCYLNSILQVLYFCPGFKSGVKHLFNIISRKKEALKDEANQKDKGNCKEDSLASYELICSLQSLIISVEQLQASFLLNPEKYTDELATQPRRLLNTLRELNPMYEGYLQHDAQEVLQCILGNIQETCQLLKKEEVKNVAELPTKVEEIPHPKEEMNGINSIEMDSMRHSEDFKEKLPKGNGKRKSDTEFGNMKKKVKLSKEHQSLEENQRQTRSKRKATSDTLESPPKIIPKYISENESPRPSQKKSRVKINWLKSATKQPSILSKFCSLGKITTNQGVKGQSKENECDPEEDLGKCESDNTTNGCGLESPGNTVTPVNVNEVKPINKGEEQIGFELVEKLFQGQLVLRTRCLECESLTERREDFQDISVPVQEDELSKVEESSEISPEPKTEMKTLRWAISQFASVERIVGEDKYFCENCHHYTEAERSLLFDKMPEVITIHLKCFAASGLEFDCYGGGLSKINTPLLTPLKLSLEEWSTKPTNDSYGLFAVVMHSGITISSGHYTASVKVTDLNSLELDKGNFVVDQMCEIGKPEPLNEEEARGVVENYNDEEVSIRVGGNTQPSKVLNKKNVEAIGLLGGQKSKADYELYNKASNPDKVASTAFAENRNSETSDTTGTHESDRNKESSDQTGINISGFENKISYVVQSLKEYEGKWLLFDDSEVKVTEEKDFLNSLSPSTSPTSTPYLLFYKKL
T1 sequence (Q8TAF3 whole entry partner): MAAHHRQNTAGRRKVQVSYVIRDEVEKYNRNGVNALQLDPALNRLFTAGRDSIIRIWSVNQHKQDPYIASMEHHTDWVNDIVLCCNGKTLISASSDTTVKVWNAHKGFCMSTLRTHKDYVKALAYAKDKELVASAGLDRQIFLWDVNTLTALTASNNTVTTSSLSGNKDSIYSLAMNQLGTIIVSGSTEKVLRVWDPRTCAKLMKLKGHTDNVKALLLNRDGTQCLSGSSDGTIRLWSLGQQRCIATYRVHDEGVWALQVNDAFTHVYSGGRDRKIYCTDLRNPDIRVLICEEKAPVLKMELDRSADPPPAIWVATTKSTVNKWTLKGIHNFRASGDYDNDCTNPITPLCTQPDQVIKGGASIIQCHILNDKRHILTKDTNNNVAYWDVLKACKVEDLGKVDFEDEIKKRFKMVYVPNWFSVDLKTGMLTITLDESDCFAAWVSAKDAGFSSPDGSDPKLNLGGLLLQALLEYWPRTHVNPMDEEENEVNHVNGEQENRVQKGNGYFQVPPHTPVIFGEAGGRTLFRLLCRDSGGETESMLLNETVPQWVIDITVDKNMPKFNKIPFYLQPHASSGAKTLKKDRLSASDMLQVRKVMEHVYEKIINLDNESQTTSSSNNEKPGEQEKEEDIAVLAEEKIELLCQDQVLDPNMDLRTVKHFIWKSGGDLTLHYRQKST

CC(C)c1ccccc1-c1ncc(C(F)(F)F)c(NCC2CCN(c3nc(C(F)(F)F)cn3C)CC2)n1 [Example 75, 2-(2-Isopropylphenyl)-N-((1-(1-methyl-4-(trifluoromethyl)-1H-imidazol-2-yl)piperidin-4-yl)methyl)-5-(trifluoromethyl)pyrimidin-4-amine]
pIC50 [1]: 8.43
pIC50 (MDA-MB-436): 6.48

[2H]C([2H])([2H])N(Cc1ccc(-c2nc(C(F)(F)F)cn2C(C)C)cc1)c1nc(-c2c(OC)ncnc2C2CC2)ncc1F [Example 129, 4'-Cyclopropyl-5-fluoro-N-(4-(1-isopropyl-4-(trifluoromethyl)-1H-imidazol-2-yl)benzyl)-6'-methoxy-N-(methyl-d3)-[2,5'-bipyrimidin]-4-amine]
pIC50 [1]: 8.05
pIC50 (MDA-MB-436): 7.90

COc1cc(CNc2nc(-c3ccccc3C(C)C)nc3ccoc23)ccc1-n1nc(C(F)(F)F)cc1C [Example 84, 2-(2-Isopropylphenyl)-N-(3-methoxy-4-(5-methyl-3-(trifluoromethyl)-1H-pyrazol-1-yl)benzyl)furo[3,2-d]pyrimidin-4-amine]
pIC50 [1]: 8.05
pIC50 (MDA-MB-436): 6.15

COc1cnc(-c2c(OC)ncnc2C2CC2)nc1NCC12CCC(c3ccc(C(F)(F)F)cn3)(CC1)CC2 [Example 28]
pIC50 [1]: 7.48
pIC50 (MDA-MB-436): 7.25

CCOCCOc1ccc(CNc2nc(-c3c(OC)ncnc3C3CC3)nc3ccoc23)cc1 [Example 117, 2-(4-Cyclopropyl-6-methoxypyrimidin-5-yl)-N-(4-(2-ethoxyethoxy)benzyl)furo[3,2-d]pyrimidin-4-amine]
pIC50 [1]: 7.86
pIC50 (MDA-MB-436): 6.56

COc1cnc(-c2c(Cl)cnn2C(C)C)nc1NCc1ccc(-c2nc(C(F)(F)F)cn2C)cc1 [Example 164, 2-(4-Chloro-1-isopropyl-1H-pyrazol-5-yl)-5-methoxy-N-(4-(1-methyl-4-(trifluoromethyl)-1H-imidazol-2-yl)benzyl)pyrimidin-4-amine]
pIC50 [1]: 8.96
pIC50 (MDA-MB-436): 9.10

COc1ncnc(C2CC2)c1-c1ncc(Cl)c(NCc2ccc(-c3nc(C(F)(F)F)cn3C3CC3)cc2)n1 [Example 125, 5-Chloro-4'-cyclopropyl-N-(4-(1-cyclopropyl-4-(trifluoromethyl)-1H-imidazol-2-yl)benzyl)-6'-methoxy-[2,5'-bipyrimidin]-4-amine]
pIC50 [1]: 8.51
pIC50 (MDA-MB-436): 9.30

CC(C)Oc1cnc(-c2ccccc2C(C)C)nc1NCc1ccc(-c2nc(C(F)(F)F)cn2C)cc1 [Example 73, 5-Isopropoxy-2-(2-isopropylphenyl)-N-(4-(1-methyl-4-(trifluoromethyl)-1H-imidazol-2-yl)benzyl)pyrimidin-4-amine]
pIC50 [1]: 8.44
pIC50 (MDA-MB-436): 6.95

COc1cc(-c2nc(C(F)(F)F)cn2C)ccc1CNc1nc(-c2ccccc2C2CC2)ncc1OC [Example 171, 2-(2-Cyclopropylphenyl)-5-methoxy-N-(2-methoxy-4-(1-methyl-4-(trifluoromethyl)-1H-imidazol-2-yl)benzyl)pyrimidin-4-amine]
pIC50 [1]: 8.64
pIC50 (MDA-MB-436): 7.07

COc1cnc(-c2c(Cl)cnn2C(C)C)nc1NCC12CCC(c3nc(C(F)(F)F)cn3C)(CC1)OC2 [Example 209, 2-(4-chloro-1-isopropyl-1H-pyrazol-5-yl)-5-methoxy-N-((1-(1-methyl-4-(trifluoromethyl)-1H-imidazol-2-yl)-2-oxabicyclo[2.2.2]octan-4-yl)methyl)pyrimidin-4-amine]
pIC50 [1]: 8.80
pIC50 (MDA-MB-436): 7.50

COc1cnc(-c2c(C)cnn2C(C)C)nc1NCc1ccc(-c2nc(C(F)(F)F)cn2C)cc1 [Example 202, 2-(1-Isopropyl-4-methyl-1H-pyrazol-5-yl)-5-methoxy-N-(4-(1-methyl-4-(trifluoromethyl)-1H-imidazol-2-yl)benzyl)pyrimidin-4-amine]
pIC50 [1]: 8.52
pIC50 (MDA-MB-436): 7.80

COc1cnc(-c2c(OC)ncnc2OC)nc1N(C)C[C@H]1CC[C@H](c2nc(C(F)(F)F)cn2C2CC2)CC1 [Example S30, N-(((1R,4R)-4-(1-cyclopropyl-4-(trifluoromethyl)-1H-imidazol-2-yl)cyclohexyl)methyl)-4',5,6'-trimethoxy-N-methyl-[2,5'-bipyrimidin]-4-amine]
pIC50 [1]: 7.92
pIC50 (MDA-MB-436): 7.50

COc1cnc(-c2c(Cl)cnn2C(C)C)nc1NCc1ccc(-c2ccccn2)cc1 [Example 162, 2-(4-Chloro-1-isopropyl-1H-pyrazol-5-yl)-5-methoxy-N-(4-(pyridin-2-yl)benzyl)pyrimidin-4-amine]
pIC50 [1]: 8.41
pIC50 (MDA-MB-436): 7.11

COc1ncnc(C2CC2)c1-c1nc(NCc2ccc(-c3nc(C(F)(F)F)cn3C)cc2)c2occc2n1 [Example 35, 2-(4-Cyclopropyl-6-methoxypyrimidin-5-yl)-N-(4-(1-methyl-4-(trifluoromethyl)-1H-imidazol-2-yl)benzyl)furo[3,2-d]pyrimidin-4-amine]
pIC50 [1]: 8.02
pIC50 (MDA-MB-436): 7.35

COc1cnc(-c2c(Cl)cnn2C2CC2)nc1NCc1ccc(-c2nc(C(F)(F)F)cn2C)cc1 [Example 192, 2-(4-Chloro-1-cyclopropyl-1H-pyrazol-5-yl)-5-methoxy-N-(4-(1-methyl-4-(trifluoromethyl)-1H-imidazol-2-yl)benzyl)pyrimidin-4-amine]
pIC50 [1]: 8.42
pIC50 (MDA-MB-436): 7.69

COc1cnc(-c2c(C)cnn2C(C)C)nc1N(C)Cc1ccc(-c2nc(C(F)(F)F)cn2C)cc1 [Example 200, 2-(1-Isopropyl-4-methyl-1H-pyrazol-5-yl)-5-methoxy-N-methyl-N-(4-(1-methyl-4-(trifluoromethyl)-1H-imidazol-2-yl)benzyl)pyrimidin-4-amine]
pIC50 [1]: 8.55
pIC50 (MDA-MB-436): 8.55

CC(C)c1ccccc1-c1ncc(N2CCN(C)CC2)c(NCc2ccc(-c3nc(C(F)(F)F)cn3C)cc2)n1 [Example 88, 2-(2-Isopropylphenyl)-N-(4-(1-methyl-4-(trifluoromethyl)-1H-imidazol-2-yl)benzyl)-5-(4-methylpiperazin-1-yl)pyrimidin-4-amine]
pIC50 [1]: 8.00
pIC50 (MDA-MB-436): 6.80

COc1cnc(-c2c(OC)ncnc2C(F)(F)F)nc1N(C)C[C@H]1CC[C@H](c2nc(C(F)(F)F)cn2C)CC1 [Example S36, 4',5-Dimethoxy-N-methyl-N-(((1R,4R)-4-(1-methyl-4-(trifluoromethyl)-1H-imidazol-2-yl)cyclohexyl)methyl)-6'-(trifluoromethyl)-[2,5'-bipyrimidin]-4-amine]
pIC50 [1]: 8.15
pIC50 (MDA-MB-436): 8.74

Cc1cc(C(F)(F)F)nn1-c1ccc(CNc2nc(-c3ccccc3C(C)C)nc3ccoc23)cc1 [Example 57, 2-(2-Isopropylphenyl)-N-(4-(5-methyl-3-(trifluoromethyl)-1H-pyrazol-1-yl)benzyl)furo[3,2-d]pyrimidin-4-amine]
pIC50 [1]: 8.36
pIC50 (MDA-MB-436): 7.32

COc1cnc(-c2ccccc2C(C)C)nc1NCc1ccc(-c2ccccn2)cc1 [Example 64, 2-(2-Isopropylphenyl)-5-methoxy-N-(4-(pyridin-2-yl)benzyl)pyrimidin-4-amine]
pIC50 [1]: 8.43
pIC50 (MDA-MB-436): 8.20

COc1cnc(-c2c(OC)ncnc2C2CC2)nc1NCC12C3C4C1C1C2C3C41c1nc(C(F)(F)F)cn1C (centres unmarked) [Example 215]
pIC50 [1]: 8.66
pIC50 (MDA-MB-436): 8.06

COc1cnc(-c2c(OC)ncnc2C2CC2)nc1NCc1ccc(-c2nc(C(F)(F)F)cn2C(C)C)cc1 [Example 106, 4'-Cyclopropyl-N-(4-(1-isopropyl-4-(trifluoromethyl)-1H-imidazol-2-yl)benzyl)-5,6'-dimethoxy-[2,5'-bipyrimidin]-4-amine]
pIC50 [1]: 8.54
pIC50 (MDA-MB-436): 8.33

COc1cnc(-c2ccccc2N(C)C)nc1NCc1ccc(-n2nc(C(F)(F)F)cc2C)cc1 [Example 160, 2-(2-(Dimethylamino)phenyl)-5-methoxy-N-(4-(5-methyl-3-(trifluoromethyl)-1H-pyrazol-1-yl)benzyl)pyrimidin-4-amine]
pIC50 [1]: 8.44
pIC50 (MDA-MB-436): 6.92

COc1cnc(-c2c(Cl)cnn2C(C)C)nc1N(C)CC12CCC(c3nc(C(F)(F)F)cn3C3CCC3)(CC1)OC2 [Example S12, 2-(4-Chloro-1-isopropyl-1H-pyrazol-5-yl)-N-((1-(1-cyclobutyl-4-(trifluoromethyl)-1H-imidazol-2-yl)-2-oxabicyclo[2.2.2]oct-4-yl)methyl)-5-methoxy-N-methylpyrimidin-4-amine]
pIC50 [1]: 7.46
pIC50 (MDA-MB-436): 6.77

COc1cnc(-c2c(Cl)cnn2C(C)C)nc1NCc1ccc(-n2nc(C(F)(F)F)cc2C)cc1 [Example 165, 2-(4-Chloro-1-isopropyl-1H-pyrazol-5-yl)-5-methoxy-N-(4-(5-methyl-3-(trifluoromethyl)-1H-pyrazol-1-yl)benzyl)pyrimidin-4-amine]
pIC50 [1]: 8.85
pIC50 (MDA-MB-436): 8.15

COc1cnc(-c2c(OC)ncnc2C2CC2)nc1N(C)Cc1ccc(-c2nc(C(F)(F)F)cn2C(C)C)cc1 [Example 93, 4'-Cyclopropyl-N-(4-(1-isopropyl-4-(trifluoromethyl)-1H-imidazol-2-yl)benzyl)-5,6'-dimethoxy-N-methyl-[2,5'-bipyrimidin]-4-amine]
pIC50 [1]: 8.82
pIC50 (MDA-MB-436): 8.46

CC(C)c1ccccc1-c1ncc(OC(F)F)c(NCc2ccc(-c3nc(C(F)(F)F)cn3C)cc2)n1 [Example 86, 5-(Difluoromethoxy)-2-(2-isopropylphenyl)-N-(4-(1-methyl-4-(trifluoromethyl)-1H-imidazol-2-yl)benzyl)pyrimidin-4-amine]
pIC50 [1]: 8.96
pIC50 (MDA-MB-436): 7.53

CC(C)c1ccccc1-c1ncc(C#N)c(NCc2ccc(-c3nc(C(F)(F)F)cn3C)cc2)n1 [Example 39, 2-(2-Isopropylphenyl)-4-((4-(1-methyl-4-(trifluoromethyl)-1H-imidazol-2-yl)benzyl)amino)pyrimidine-5-carbonitrile]
pIC50 [1]: 8.55
pIC50 (MDA-MB-436): 7.24
